# Assay results from US11051515B2, “3-acyl-benzamides and their use as herbicides” (Bayer Aktiengesellschaft, priority 2017, dated 2021).
# Columns and labels:
# PHBPU = assay: Post-emergence action against PHBPU; format: in vivo, Pharbitis purpurea; details: post-emergence, dosage 80 g/ha
# In short: (§1)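 Post-emergence foliar spray on greenhouse plants at the one-leaf stage, using wettable-powder or emulsion-concentrate formulations in water (600 to […], plus 0.2% wetting agent). Damage scored by eye roughly 3 weeks later against untreated plants: 0% = like control, 100% = dead.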
# ECHCG [1] = assay: Post-emergence action against ECHCG; format: in vivo, Echinochloa crus-galli; details: post-emergence, dosage 80 g/ha, visual assessment about 3 weeks after treatment vs untreated controls
# In short: as §1
# ECHCG [2] = assay: Pre-emergence action against ECHCG; format: in vivo, Echinochloa crus-galli; details: pre-emergence, dosage 320 g/ha, scored visually after 3 weeks vs untreated controls
# In short: (§2)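 Seeds sown in sandy loam in wood-fiber pots and covered with soil. Greenhouse growth; visual damage scored after 3 weeks versus untreated controls (100% = dead, 0% = like control).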
# VERPE [3] = assay: Post-emergence action against VERPE; format: in vivo, Veronica persica; details: dosage 80 g/ha
# In short: as §1
# AVEFA [4] = assay: Pre-emergence action against AVEFA; format: in vivo, Avena fatua; details: dosage 320 g/ha, scored visually after 3 weeks vs untreated controls
# In short: as §2
# CYPES [5] = assay: Pre-emergence action against CYPES; format: in vivo, Cyperus esculentus; details: pre-emergence, dosage 320 g/ha, scored visually after 3 weeks vs untreated controls
# In short: as §2
# VIOTR [6] = assay: Post-emergence action against VIOTR; format: in vivo, Viola tricolor; details: post-emergence, dosage 80 g/ha
# In short: as §1
# MATIN [7] = assay: Pre-emergence action against MATIN; format: in vivo, Matricaria inodora; details: Dosage 320 g/ha, pre-emergence
# In short: as §2
# STEME [8] = assay: Pre-emergence action against STEME; format: in vivo, Stellaria media; details: Dosage 320 g/ha, pre-emergence
# In short: as §2
# SETVI [9] = assay: Pre-emergence action against SETVI; format: in vivo, Setaria viridis; details: pre-emergence, dosage 320 g/ha, scored visually after 3 weeks vs untreated controls
# In short: as §2
# MATIN [10] = assay: Post-emergence action against MATIN; format: in vivo, Matricaria inodora; details: post-emergence, dosage 80 g/ha, visual assessment about 3 weeks after treatment vs untreated controls
# In short: as §1
# VERPE [11] = assay: Pre-emergence action against VERPE; format: in vivo, Veronica persica; details: Dosage 320 g/ha, pre-emergence
# In short: as §2
# ALOMY [12] = assay: Post-emergence action against ALOMY; format: in vivo, Alopecurus myosuroides; details: Dosage 80 g/ha, post-emergence
# Description: Seeds of monocotyledonous and dicotyledonous weed and crop plants are laid out in sandy loam soil in wood-fiber pots, covered with soil and cultivated in a greenhouse under good growth conditions. 2 to 3 weeks after sowing, the test plants are treated at the one-leaf stage. The compounds of the invention, formulated in the form of wettable powders (WP) or as emulsion concentrates (EC), are then sprayed onto the green parts of the plants in the form of an aqueous suspension or emulsion at a water application rate equating to […], with addition of 0.2% wetting agent. After the test plants have been left to stand in the greenhouse under optimal growth conditions for about 3 weeks, the action of the preparations is assessed visually in comparison to untreated controls (herbicidal action in percent (%): 100% activity=the plants have died, 0% activity=like control plants). […] At the same time, inventive compounds leave Gramineae crops such as barley, wheat, rye, millet/Sorghum, corn or rice virtually undamaged when applied post-emergence, even at high active ingredient dosages. In addition, some substances are also harmless to dicotyledonous crops such as soya, cotton, oilseed rape, sugar beet or potatoes. Some of the compounds according to the invention have high selectivity and are therefore suitable for controlling unwanted vegetation in agricultural crops by the post-emergence method. The data of Tables B18 to B34 below illustrate, in an exemplary manner, the […] herbicidal action of the compounds according to the invention, the herbicidal activity being stated in percent.
# ABUTH [13] = assay: Pre-emergence action against ABUTH; format: in vivo, Abutilon theophrasti; details: pre-emergence, dosage 320 g/ha, scored visually after 3 weeks vs untreated controls
# In short: as §2
# STEME [14] = assay: Post-emergence action against STEME; format: in vivo, Stellaria media; details: post-emergence, dosage 80 g/ha
# In short: as §1
# AVEFA [15] = assay: Post-emergence action against AVEFA; format: in vivo, Avena fatua; details: post-emergence, dosage 80 g/ha, visual assessment about 3 weeks after treatment vs untreated controls
# In short: as §1
# CYPES [16] = assay: Post-emergence action against CYPES; format: in vivo, Cyperus esculentus; details: post-emergence, dosage 80 g/ha, visual assessment about 3 weeks after treatment vs untreated controls
# In short: as §1
# POLCO = assay: Post-emergence action against POLCO; format: in vivo, Polygonum convolvulus; details: post-emergence, dosage 80 g/ha
# In short: as §1
# VIOTR [17] = assay: Pre-emergence action against VIOTR; format: in vivo, Viola tricolor; details: Dosage 320 g/ha, pre-emergence
# In short: as §2
# ALOMY [18] = assay: Pre-emergence action against ALOMY; format: in vivo, Alopecurus myosuroides; details: dosage 320 g/ha; pre-emergence; scored visually after 3 weeks vs untreated controls; 100% = plants have died, 0% = like control plants
# In short: as §2
# AMARE = assay: Pre-emergence action against AMARE; format: in vivo, Amaranthus retroflexus; details: pre-emergence, dosage 320 g/ha, scored visually after 3 weeks vs untreated controls
# In short: as §2
# ABUTH [19] = assay: Post-emergence action against ABUTH; format: in vivo, Abutilon theophrasti; details: post-emergence, dosage 80 g/ha, visual assessment about 3 weeks after treatment vs untreated controls
# In short: as §1
# SETVI [20] = assay: Post-emergence action against SETVI; format: in vivo, Setaria viridis; details: post-emergence, dosage 80 g/ha, visual assessment about 3 weeks after treatment vs untreated controls
# In short: as §1
structure (smiles),measurement,setting,value
CCCn1nnnc1NC(=O)c1ccc(C(F)(F)F)c(C(=O)C2CC2)c1C [3-18],Post-emergence action against PHBPU,PHBPU,90
same,Post-emergence action against ECHCG (herbicidal action in percent),ECHCG [1],80%
same,Pre-emergence action against ECHCG (herbicidal activity),ECHCG [2],100%
same,Post-emergence action against VERPE,VERPE [3],80
same,Pre-emergence action against AVEFA (herbicidal activity),AVEFA [4],80%
same,Pre-emergence action against CYPES (herbicidal activity),CYPES [5],90%
same,Post-emergence action against VIOTR,VIOTR [6],100
same,Pre-emergence action against MATIN,MATIN [7],100%
same,Pre-emergence action against STEME,STEME [8],100%
same,"SETVI (Table B8, pre-emergence herbicidal activity)",SETVI [9],100%
same,Post-emergence action against MATIN (herbicidal action in percent),MATIN [10],90%
same,Pre-emergence action against VERPE,VERPE [11],90%
same,Post-emergence action against ALOMY,ALOMY [12],80%
same,Pre-emergence action against ABUTH (herbicidal activity),ABUTH [13],100%
same,Post-emergence action against STEME,STEME [14],100
same,Post-emergence action against AVEFA (herbicidal action in percent),AVEFA [15],80%
same,Post-emergence action against CYPES (herbicidal action in percent),CYPES [16],90%
same,Post-emergence action against POLCO,POLCO,80
same,Pre-emergence action against VIOTR,VIOTR [17],100%
same,Pre-emergence action against ALOMY (herbicidal activity in percent),ALOMY [18],80%
same,Pre-emergence action against AMARE (herbicidal activity),AMARE,100%
same,Post-emergence action against ABUTH (herbicidal action in percent),ABUTH [19],80%
same,Post-emergence action against SETVI (herbicidal action in percent),SETVI [20],100%
